In PMC5596636 (ACS chemical neuroscience, 2016):
Entries after “also recorded” stand apart in the source; their conditions may differ.

Columns and labels:
[1] = system: rMC3R; conditions: HEK293 cells expressing the rMC3R; relative to α-MSH; cited from earlier work
[2] = target: mMC5R (Mus musculus, UniProt P41149); assay: cAMP-based β-galactosidase reporter agonist assay in HEK293 cells, mMC5R; conditions: for mMC5R fold difference: potency loss
[3] = target: T1, mMC1R (Mus musculus, UniProt Q01727); conditions: B16 murine melanoma cells; relative to α-MSH; cited from earlier work
T1 sequence (Q01727 whole entry): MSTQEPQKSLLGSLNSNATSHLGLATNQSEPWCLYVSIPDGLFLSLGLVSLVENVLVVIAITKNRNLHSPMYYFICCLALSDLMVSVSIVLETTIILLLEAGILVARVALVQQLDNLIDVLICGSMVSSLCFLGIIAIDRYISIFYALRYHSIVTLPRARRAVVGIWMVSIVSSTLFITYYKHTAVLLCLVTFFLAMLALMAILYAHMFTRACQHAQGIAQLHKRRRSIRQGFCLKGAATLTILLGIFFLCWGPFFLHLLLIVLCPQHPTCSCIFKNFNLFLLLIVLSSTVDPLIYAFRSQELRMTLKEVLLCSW

[4] = target: T1, mMC1R; assay: cAMP-based β-galactosidase reporter agonist assay in HEK293 cells, mMC1R; conditions: for mMC1R fold difference: potency loss
[5] = target: mMC3R (Mus musculus, UniProt P33033); assay: cAMP-based β-galactosidase reporter agonist assay in HEK293 cells, mMC3R; conditions: for selectivity for the mMC3R over the mMC1R: from agonist EC50 values; for mMC3R fold difference: EC50 of substituted peptide divided by EC50 of NDP-MSH, potency loss
mMC3R, sequence (P33033 whole entry): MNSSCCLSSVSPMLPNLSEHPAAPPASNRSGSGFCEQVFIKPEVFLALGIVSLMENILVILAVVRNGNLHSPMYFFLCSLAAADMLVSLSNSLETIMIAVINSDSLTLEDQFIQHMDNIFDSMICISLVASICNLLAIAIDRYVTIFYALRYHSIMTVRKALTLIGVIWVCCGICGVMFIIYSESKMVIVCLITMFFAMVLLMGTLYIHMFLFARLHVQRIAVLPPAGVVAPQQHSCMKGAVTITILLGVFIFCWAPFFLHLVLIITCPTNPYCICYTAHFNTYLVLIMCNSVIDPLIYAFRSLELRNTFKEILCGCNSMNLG

[6] = target: mMC4R (Mus musculus, UniProt P56450); assay: cAMP-based β-galactosidase reporter agonist assay in HEK293 cells, mMC4R; conditions: for mMC4R fold difference: potency loss; for selectivity for the mMC4R over the mMC1R: from agonist EC50 values
mMC4R, sequence (P56450 whole entry): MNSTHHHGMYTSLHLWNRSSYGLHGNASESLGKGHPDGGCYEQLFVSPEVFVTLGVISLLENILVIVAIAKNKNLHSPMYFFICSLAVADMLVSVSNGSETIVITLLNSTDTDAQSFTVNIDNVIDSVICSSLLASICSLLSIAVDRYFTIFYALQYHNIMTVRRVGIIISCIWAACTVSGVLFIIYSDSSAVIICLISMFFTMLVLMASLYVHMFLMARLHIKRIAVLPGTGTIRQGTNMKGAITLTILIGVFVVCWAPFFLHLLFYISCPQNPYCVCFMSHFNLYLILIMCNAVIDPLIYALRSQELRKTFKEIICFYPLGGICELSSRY

[7] = target: T1, mMC1R; conditions: B16 murine melanoma cells; relative to α-MSH; cited from earlier work; remark: listed apart in the source
[8] = system: hMC4R; conditions: cited from earlier work
[9] = system: hMC1R; conditions: COS cell-line expressing human melanocortin receptors; cited from earlier work
[10] = system: hMC4R; conditions: cited from earlier work; remark: listed apart in the source
[11] = system: hMC3R; conditions: COS cell-line expressing human melanocortin receptors; cited from earlier work
[12] = system: hMC1R; conditions: cited from earlier work
[13] = EC50 of substituted peptide divided by EC50 of α-MSH
[14] = EC50 of substituted peptide divided by EC50 of NDP-MSH

mMC5R, sequence (P41149 whole entry): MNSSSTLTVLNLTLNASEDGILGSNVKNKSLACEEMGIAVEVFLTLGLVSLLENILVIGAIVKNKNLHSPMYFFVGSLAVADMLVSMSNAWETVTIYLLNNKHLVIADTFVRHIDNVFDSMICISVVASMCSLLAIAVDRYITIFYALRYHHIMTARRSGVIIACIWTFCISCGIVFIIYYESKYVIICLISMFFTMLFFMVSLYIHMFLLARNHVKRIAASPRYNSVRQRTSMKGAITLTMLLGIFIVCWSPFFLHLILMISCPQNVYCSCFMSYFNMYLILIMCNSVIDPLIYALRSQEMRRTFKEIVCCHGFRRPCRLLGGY

| mMC5R fold difference [2, 13] | mMC1R fold difference [4, 13] | EC50 [5] | mMC4R fold difference [6, 13] | mMC5R fold difference [2, 14] | mMC1R fold difference [4, 14] | mMC4R fold difference [6, 14] | SMILES | fold decreased binding affinity at the rMC3R [1] | fold decreased tyrosinase potency at the mMC1R [3] | fold decreased binding affinity at the mMC1R [7] | further results |
| --- | --- | --- | --- | --- | --- | --- | --- | --- | --- | --- | --- |
| within experimental error | 26 fold | 12.1 ± 6.35 nM | within experimental error |  |  |  | CSCC[C@H](NC(=O)[C@H](C)NC(=O)[C@H](Cc1ccc(O)cc1)NC(=O)[C@H](CO)NC(C)=O)C(=O)N[C@@H](CCC(=O)O)C(=O)N[C@@H](Cc1c[nH]cn1)C(=O)N[C@@H](Cc1ccccc1)C(=O)N[C@@H](CCCNC(=N)N)C(=O)N[C@@H](Cc1c[nH]c2ccccc12)C(=O)NCC(=O)N[C@@H](CCCCN)C(=O)N1CCC[C@H]1C(=O)N[C@H](C(N)=O)C(C)C [[Ala^3]α-MSH] | equipotent | equipotent | equipotent |  |
| did not alter potency | 400 fold | 17.4 ± 6.12 nM | 5 fold |  |  |  | CC(=O)N[C@@H](CO)C(=O)N[C@@H](Cc1ccc(O)cc1)C(=O)N[C@@H](CO)C(=O)N[C@@H](C)C(=O)N[C@@H](CCC(=O)O)C(=O)N[C@@H](Cc1c[nH]cn1)C(=O)N[C@@H](Cc1ccccc1)C(=O)N[C@@H](CCCNC(=N)N)C(=O)N[C@@H](Cc1c[nH]c2ccccc12)C(=O)NCC(=O)N[C@@H](CCCCN)C(=O)N1CCC[C@H]1C(=O)N[C@H](C(N)=O)C(C)C [[Ala^4]α-MSH] | 14 fold | 59 fold | 140 fold | selectivity for the mMC5R over the mMC1R ([2]; from agonist EC50 values): 210 fold; selectivity for the mMC3R over the mMC1R [5]: 710 fold; selectivity for the mMC4R over the mMC1R [6]: 100 fold |
|  |  | 1.18 ± 0.4 nM |  | no change | no change | 4 fold | CCCC[C@H](NC(=O)[C@H](CO)NC(=O)[C@H](Cc1ccc(O)cc1)NC(=O)[C@H](CO)NC(C)=O)C(=O)N[C@@H](C)C(=O)N[C@@H](Cc1c[nH]cn1)C(=O)N[C@H](Cc1ccccc1)C(=O)N[C@@H](CCCNC(=N)N)C(=O)N[C@@H](Cc1c[nH]c2ccccc12)C(=O)NCC(=O)N[C@@H](CCCCN)C(=O)N1CCC[C@H]1C(=O)N[C@H](C(N)=O)C(C)C [[Ala^5]NDP-MSH, Ac-Ser-Tyr-Ser-Nle-Ala-His-DPhe-Arg-Trp-Gly-Lys-Pro-Val-NH2] |  |  |  | fold decreased agonist potency at the hMC4R relative to NDP-MSH [8]: 4 fold; mMC3R fold difference [5]: 5 fold |
| unaltered | 1560 fold | 220 ± 55 nM | 15 fold |  |  |  | CSCC[C@H](NC(=O)[C@H](CO)NC(=O)[C@H](Cc1ccc(O)cc1)NC(=O)[C@H](CO)NC(C)=O)C(=O)N[C@@H](C)C(=O)N[C@@H](Cc1c[nH]cn1)C(=O)N[C@@H](Cc1ccccc1)C(=O)N[C@@H](CCCNC(=N)N)C(=O)N[C@@H](Cc1c[nH]c2ccccc12)C(=O)NCC(=O)N[C@@H](CCCCN)C(=O)N1CCC[C@H]1C(=O)N[C@H](C(N)=O)C(C)C [[Ala^5]α-MSH] | equipotent | equipotent | equipotent | selectivity for the mMC5R over the mMC1R ([2]; from agonist EC50 values): 740 fold; EC50 ([4]; mMC1R EC50, bound, Table 2, EC50 higher than 20 μM): > 20000 nM; selectivity for the mMC3R over the mMC1R [5]: 220 fold; selectivity for the mMC4R over the mMC1R [6]: 130 fold |
|  |  | 0.55 ± 0.12 nM |  | did not alter agonist potency | did not alter agonist potency | did not alter agonist potency | CCCC[C@H](NC(=O)[C@H](CO)NC(=O)[C@H](Cc1ccc(O)cc1)NC(=O)[C@H](CO)NC(C)=O)C(=O)N[C@@H](CCC(=O)O)C(=O)N[C@@H](C)C(=O)N[C@H](Cc1ccccc1)C(=O)N[C@@H](CCCNC(=N)N)C(=O)N[C@@H](Cc1c[nH]c2ccccc12)C(=O)NCC(=O)N[C@@H](CCCCN)C(=O)N1CCC[C@H]1C(=O)N[C@H](C(N)=O)C(C)C [[Ala^6]NDP-MSH, Ac-Ser-Tyr-Ser-Nle-Glu-Ala-DPhe-Arg-Trp-Gly-Lys-Pro-Val-NH2] |  |  |  | fold decreased agonist potency at the hMC4R relative to NDP-MSH [8]: 4 fold; fold decreased binding affinity at the hMC1R [9]: 8 fold; efficacy relative to NDP-MSH at the hMC4R [10]: 40%; fold agonist potency loss at the hMC4R relative to NDP-MSH [10]: equipotent; fold decreased binding affinity at the hMC3R [11]: 6 fold; mMC3R fold difference [5]: did not alter agonist potency; also recorded: equipotency |
| 45 fold | 35 fold | 4270 ± 1960 nM | 110 fold |  |  |  | CSCC[C@H](NC(=O)[C@H](CO)NC(=O)[C@H](Cc1ccc(O)cc1)NC(=O)[C@H](CO)NC(C)=O)C(=O)N[C@@H](CCC(=O)O)C(=O)N[C@@H](C)C(=O)N[C@@H](Cc1ccccc1)C(=O)N[C@@H](CCCNC(=N)N)C(=O)N[C@@H](Cc1c[nH]c2ccccc12)C(=O)NCC(=O)N[C@@H](CCCCN)C(=O)N1CCC[C@H]1C(=O)N[C@H](C(N)=O)C(C)C [[Ala^6]α-MSH] | 6 fold | 6 fold | 83 fold |  |
| 210 fold | 200 fold | 1660 ± 825 nM | 190 fold |  |  |  | CSCC[C@H](NC(=O)[C@H](CO)NC(=O)[C@H](Cc1ccc(O)cc1)NC(=O)[C@H](CO)NC(C)=O)C(=O)N[C@@H](CCC(=O)O)C(=O)N[C@@H](Cc1c[nH]cn1)C(=O)N[C@@H](C)C(=O)N[C@@H](CCCNC(=N)N)C(=O)N[C@@H](Cc1c[nH]c2ccccc12)C(=O)NCC(=O)N[C@@H](CCCCN)C(=O)N1CCC[C@H]1C(=O)N[C@H](C(N)=O)C(C)C [[Ala^7]α-MSH] | 91 fold | 260 fold | 500 fold |  |
|  |  | 2.07 ± 0.42 nM |  | did not affect the agonist potency | 6 fold | 29 fold | CCCC[C@H](NC(=O)[C@H](CO)NC(=O)[C@H](Cc1ccc(O)cc1)NC(=O)[C@H](CO)NC(C)=O)C(=O)N[C@@H](CCC(=O)O)C(=O)N[C@@H](Cc1c[nH]cn1)C(=O)N[C@H](Cc1ccccc1)C(=O)N[C@@H](C)C(=O)N[C@@H](Cc1c[nH]c2ccccc12)C(=O)NCC(=O)N[C@@H](CCCCN)C(=O)N1CCC[C@H]1C(=O)N[C@H](C(N)=O)C(C)C [[Ala^8]NDP-MSH, Ac-Ser-Tyr-Ser-Nle-Glu-His-DPhe-Ala-Trp-Gly-Lys-Pro-Val-NH2] |  |  |  | fold agonist potency loss at the hMC4R relative to NDP-MSH [10]: 32 fold |
| 5 fold | 200 fold | 670 ± 215 nM | 470 fold |  |  |  | CSCC[C@H](NC(=O)[C@H](CO)NC(=O)[C@H](Cc1ccc(O)cc1)NC(=O)[C@H](CO)NC(C)=O)C(=O)N[C@@H](CCC(=O)O)C(=O)N[C@@H](Cc1c[nH]cn1)C(=O)N[C@@H](Cc1ccccc1)C(=O)N[C@@H](C)C(=O)N[C@@H](Cc1c[nH]c2ccccc12)C(=O)NCC(=O)N[C@@H](CCCCN)C(=O)N1CCC[C@H]1C(=O)N[C@H](C(N)=O)C(C)C [[Ala^8]α-MSH] | 200 fold | 100 fold | 2080 fold | selectivity for the mMC5R over the mMC4R ([2]; from agonist EC50 values): 120 fold |
|  |  | 295 ± 92 nM |  | 220 fold | 180 fold | 2120 fold | CCCC[C@H](NC(=O)[C@H](CO)NC(=O)[C@H](Cc1ccc(O)cc1)NC(=O)[C@H](CO)NC(C)=O)C(=O)N[C@@H](CCC(=O)O)C(=O)N[C@@H](Cc1c[nH]cn1)C(=O)N[C@H](Cc1ccccc1)C(=O)N[C@@H](CCCNC(=N)N)C(=O)N[C@@H](C)C(=O)NCC(=O)N[C@@H](CCCCN)C(=O)N1CCC[C@H]1C(=O)N[C@H](C(N)=O)C(C)C [[Ala^9]NDP-MSH, Ac-Ser-Tyr-Ser-Nle-Glu-His-DPhe-Arg-Ala-Gly-Lys-Pro-Val-NH2] |  |  |  | activation of the hMC4R ([10]; at concentrations up to 100 μM): not to activate; mMC3R fold difference [5]: 1230 fold; agonist efficacy at the hMC1R [12]: full agonist; fold less potent than NDP-MSH at the hMC1R [12]: 3 fold |
| 1370 fold | 570 fold | 15700 ± 4870 nM | 1500 fold |  |  |  | CSCC[C@H](NC(=O)[C@H](CO)NC(=O)[C@H](Cc1ccc(O)cc1)NC(=O)[C@H](CO)NC(C)=O)C(=O)N[C@@H](CCC(=O)O)C(=O)N[C@@H](Cc1c[nH]cn1)C(=O)N[C@@H](Cc1ccccc1)C(=O)N[C@@H](CCCNC(=N)N)C(=O)N[C@@H](C)C(=O)NCC(=O)N[C@@H](CCCCN)C(=O)N1CCC[C@H]1C(=O)N[C@H](C(N)=O)C(C)C [[Ala^9]α-MSH] | 83 fold | 120 fold | 2000 fold | EC50 ([2]; mMC5R EC50, bound, Table 2, EC50 higher than 20 μM): > 20000 nM; EC50 ([6]; mMC4R EC50, bound, Table 2, EC50 higher than 20 μM): > 20000 nM |
